From ChEMBL document CHEMBL1201862, “PubChem BioAssay data set” (2004) come the findings set out here.

Active and inactive are the calls of the source. Bounds are passed on as bounds.

As usually defined, the AC50 is the midpoint of the concentration-response curve, whichever way the signal moves. As usually defined, the IC50 is the concentration that inhibits the measured activity by half. As usually defined, the EC50 is the concentration needed to bring the measured effect to its halfway point. A word on the CC50: it is the concentration giving 50% cytotoxicity.

In test [1] the target is Heat shock protein HSP 90-alpha (Homo sapiens, UniProt P07900). It counts as functional, organism-based.
The subject of a further test is CHO. Description: CHO cell viability loss, potency – luminescence, cytotoxicity control for TLR9-MyD88 binding inhibitor project, dose response (AID 588339).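 Further: CHO cells stably coexpressing TLR9 and MyD88 fusions from primary screen; compound exposure lasted 48 hours before viability readout.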 Particulars: Cricetulus griseus. It counts as functional, cell-based, hamster.
Test [2] deals with T1, Microphthalmia-associated transcription factor (Homo sapiens, UniProt O75030).
T1 sequence (O75030 whole entry): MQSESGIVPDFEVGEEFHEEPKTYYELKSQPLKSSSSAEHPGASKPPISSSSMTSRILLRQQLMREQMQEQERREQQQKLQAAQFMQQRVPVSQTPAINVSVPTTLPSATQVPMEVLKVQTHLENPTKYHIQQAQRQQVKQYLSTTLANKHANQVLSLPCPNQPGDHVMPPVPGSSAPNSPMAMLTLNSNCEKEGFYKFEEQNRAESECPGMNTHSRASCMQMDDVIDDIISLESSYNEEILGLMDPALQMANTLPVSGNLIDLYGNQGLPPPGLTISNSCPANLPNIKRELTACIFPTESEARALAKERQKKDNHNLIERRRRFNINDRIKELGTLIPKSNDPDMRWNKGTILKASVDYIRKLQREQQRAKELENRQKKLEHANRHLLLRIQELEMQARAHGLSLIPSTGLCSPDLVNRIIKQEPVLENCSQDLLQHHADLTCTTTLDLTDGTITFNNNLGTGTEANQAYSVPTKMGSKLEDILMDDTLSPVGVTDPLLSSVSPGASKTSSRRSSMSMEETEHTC
Kind of test: reducers of TRPM1 reporter luminescence, concentration series – cell-based, SK-MEL-5, cherry-picked, set 3, MITF inhibitor project, dose response (AID 493073).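 Further: SK-MEL-5 melanoma cells with luciferase driven by the MITF target TRPM1 promoter.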 It counts as functional.

In another test the target is Beta Lactamase (Pseudomonas aeruginosa, UniProt Q932Y6). Kind of test: BLA reporter interference, concentration series – BLA reporter cells, FRET fluorescence, artefact control for TLR9-MyD88 binding inhibitor project, dose response (AID 588341).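 Further: cell based assay in CHO-K1 cells stably expressing beta-lactamase.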 It counts as cell-based.
Test [3] concerns the target Latent membrane protein 1 (Human herpesvirus 4 (strain B95-8), UniProt P03230). Kind of test: LMP1 TES1 pathway selectivity over dsRED control – imaging, HEK293T, dual-color eGFP/dsRED, cherry-picks, selectivity assay for LMP1 NF-kB inhibitor project, dose response (AID 588398). The class given is functional, cell-based.
Test [4] addresses T2, Beta-galactosidase (Escherichia coli, UniProt Q8VNN2). Description: PubChem AID 485352. The class given is functional.
Another test deals with Vero. Kind of test: mammalian cell viability reduction – secondary assay, cytotoxicity control for West Nile virus antiviral project, dose response (AID 1650). The note with it: Chlorocebus sabaeus. The class given is functional.
The target in test [5] is T3, Sphingosine 1-phosphate receptor 4 (Homo sapiens, UniProt O95977).
T3 sequence (O95977 whole entry): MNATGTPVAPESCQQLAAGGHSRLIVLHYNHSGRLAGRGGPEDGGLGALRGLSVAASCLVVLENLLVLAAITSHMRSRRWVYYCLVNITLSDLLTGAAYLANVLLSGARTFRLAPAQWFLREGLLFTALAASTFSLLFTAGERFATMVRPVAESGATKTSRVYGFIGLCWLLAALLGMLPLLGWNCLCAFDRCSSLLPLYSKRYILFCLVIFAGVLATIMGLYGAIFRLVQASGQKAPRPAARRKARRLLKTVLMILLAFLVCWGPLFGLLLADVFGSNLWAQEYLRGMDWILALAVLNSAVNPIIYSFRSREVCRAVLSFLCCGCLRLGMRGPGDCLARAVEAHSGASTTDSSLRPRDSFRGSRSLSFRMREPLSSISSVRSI
Kind of test: Fluorescence dose response cell-based high throughput screening assay for antagonists of the Sphingosine 1-Phosphate Receptor 4 (S1P4). [Related pubchem assays: 1524 (Confirmation in triplicates.), 1510 (Primary screen.)]. The class given is functional.

Test [6] in a line: alpha-synuclein stem-loop luciferase translation blockers – H4 neuroglioma cells, luminescence, confirmation (AID 1988). The class given is functional, cell-based.
Test [7] addresses T4, Delta-type opioid receptor (Homo sapiens, UniProt P41143). Description: HTS Image-Based Screen for Agonists of the DOR Receptor. [Related pubchem assays (depositor defined):AID1777, AID1786, AID2133]. It counts as functional.
The nature of test [8]: viability of PTEN-deleted HCT116 cells – cell-based, HCT116 PTEN knockout, dose response (AID 1047).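 Further: HCT116 colon tumor cells with PTEN knocked out; cells exposed to compound for 60 hours before readout.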 The class given is functional.
Test [9] in a line: viability of HCT116 lacking mutant beta-catenin – cell-based, human colon tumor, dose response (AID 1045).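 Further: HCT116 colon tumor cells with beta catenin knocked out; cells exposed to compound for 60 hours.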 It counts as functional.
For test [10], the target named is T4, Delta-type opioid receptor. Description: HTS Image-Based Screen for Antagonists of the DOR Receptor. [Related pubchem assays (depositor defined):AID1777, AID1785, AID1786, AID2133]. The class given is functional.
Test [11] has as its system A-375. Kind of test: MITF: Counter assay: A375 proliferation Measured in Cell-Based System Using Plate Reader - 2084-03_Inhibitor_Dose_DryPowder_Activity. [Related pubchem assays (depositor defined):AID488944]. It counts as functional. The note with it: Homo sapiens.
Test [12] can be described thus: luciferase reporter signal suppression in cells – H4 neuroglioma cells, luminescence, dose response (AID 1990). The class given is functional, cell-based. (In a reporter assay the amount or activity of a reporter protein is the signal.)
The test system of test [13] is A-375. Description: proliferation inhibition in MITF-low A375 cells – cell-based, cherry-pick samples, set 2, counter-screen for MITF modulator project, dose response (AID 540335). It counts as functional. Particulars: Homo sapiens.
The target in test [14] is Sphingosine 1-phosphate receptor 1 (Homo sapiens, UniProt P21453). The class given is functional.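 Further: Tango beta-arrestin reporter U2OS cells stimulated with S1P near its EC80; inhibitor potency meaning antagonism of receptor activation by the natural agonist.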
Test [15] deals with T3, Sphingosine 1-phosphate receptor 4. Description: Late stage fluorescence dose response cell-based screening assay for antagonists of the Sphingosine 1-Phosphate Receptor 4 (S1P4). [Related pubchem assays: 1524 (Confirmation screen (S1P4 antagonists).), 1510 (Primary screen (S1P4 antagonists).), 1853 (Summary AID (S1P4 antagonists).), 1692 (Dose response screen (S1P4 antagonists).)]. It counts as functional.

Another test has as its system Jurkat. Kind of test: SAR Analysis of small molecule inhibitors of both B-cell and T-cell specific antigen receptor-induced NF-kB activation in a Jurkat cell line using a luminescence assay. [Related pubchem assays (depositor defined):AID435003, AID435022, AID465, AID489029]. The note with it: Homo sapiens. It counts as functional, cell-based.
The test system of test [16] is HEK293. Kind of test: SAR Analysis of small molecule inhibitors of both B-cell and T-cell specific antigen receptor-induced NF-kB activation in a HEK-293T cell line using a luminescence assay. [Related pubchem assays (depositor defined):AID435003, AID435022, AID465, AID489019, AID489029]. It counts as functional, cell-based. Particulars: Homo sapiens.
Test [17] is described as follows: Luminescence Cell-Based Dose Response HTS to Identify Inhibitors of 5'UTR Stem-Loop Driven Prion Protein mRNA Translation in H4 Neuroglioblastoma Cells. [Related pubchem assays: 1827 (Project Summary), 1813 (Primary HTS)]. The class given is functional.
The target in test [18] is Kappa-type opioid receptor (Homo sapiens, UniProt P41145). It counts as functional.
A further test concerns the target Mu-type opioid receptor (Homo sapiens, UniProt P35372). Kind of test: HTS Image-Based Screen for Agonists of the MOR Receptor. [Related pubchem assays (depositor defined):AID1777, AID1785, AID1786, AID2133]. The class given is functional.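 Further: imaging of beta-arrestin GFP recruitment into spots after receptor activation.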
Test [19] can be described thus: Luminescence-based dose response cell-based high throughput screening assay for cytotoxic compounds using the IEC-6 intestinal epithelial cell line. [Related pubchem assays: 1858 (Summary AID.), 1825 (Counterscreen.), 1907 (Confirmation screen.)]. It counts as functional. Background: The purpose of a counterscreen is to sort out artefacts and off-target activity.

The target of test [20] is T2, Beta-galactosidase. The class given is functional.
In test [21] the test system is HEK293. Kind of test: HEK293T cell viability loss, resazurin readout – resazurin fluorescence, cytotoxicity control for NF-kB activator project, SAR follow-up (AID 493251). It counts as functional, cell-based. Particulars: Homo sapiens.
In test [22] the target is T5, Type-1 angiotensin II receptor (Homo sapiens, UniProt P30556).
T5 sequence (P30556 whole entry): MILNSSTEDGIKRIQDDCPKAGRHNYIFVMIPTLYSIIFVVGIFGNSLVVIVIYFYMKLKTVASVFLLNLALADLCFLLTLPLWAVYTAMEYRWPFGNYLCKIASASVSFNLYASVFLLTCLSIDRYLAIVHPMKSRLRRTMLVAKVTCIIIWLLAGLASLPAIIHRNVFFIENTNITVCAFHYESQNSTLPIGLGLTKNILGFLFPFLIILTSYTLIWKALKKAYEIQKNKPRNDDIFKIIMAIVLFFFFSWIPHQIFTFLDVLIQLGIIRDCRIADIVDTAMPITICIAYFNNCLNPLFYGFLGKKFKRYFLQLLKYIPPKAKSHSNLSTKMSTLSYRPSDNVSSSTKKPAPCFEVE
Kind of test: antagonism of angiotensin II type 1 receptor – cell-based, uHTS hits, selectivity assay for APJ receptor antagonist project, dose response (AID 463214).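 Further: antagonist potency against angiotensin II stimulated AT1 response.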 It counts as functional.

The target of test [23] is Apoptotic protease-activating factor 1 (Homo sapiens, UniProt O14727). The class given is functional.
Test [24] has as its target Glycogen synthase kinase-3 beta (Homo sapiens, UniProt P49841). Description: Inhibition of Human GSK-3 beta Activity Measured in Biochemical System Using Microfluidics - 2063-05_Inhibitor_Dose_DryPowder_Activity_Set2. [Related pubchem assays (depositor defined):AID2709].
Test [25] deals with Glycogen synthase kinase-3 alpha (Homo sapiens, UniProt P49840). Description: Inhibition of Human GSK-3 alpha Activity Measured in Biochemical System Using Microfluidics - 2063-06_Inhibitor_Dose_DryPowder_Activity_Set2. [Related pubchem assays (depositor defined):AID2709].
Test [26] concerns INS1. Description: beta-cell survival under cytokine stress – INS-1E, ATP luminescence, dry powder, dose response (AID 488844). The class given is functional, cell-based. The note with it: Rattus norvegicus.
Test [27] deals with INS1. Description: suppression of NO production in INS-1E cells – cell-based, Griess absorbance, dry powder, set 2, dose response (AID 488868). It counts as functional. The note with it: Rattus norvegicus. On the technique in general: Nitrite, measured by Griess reagent, commonly stands in for NO production.
Test [28] relates to INS1. Description: INS-1E mitochondrial potential loss inhibitors – cell-based, JC-1 fluorescence, dry powder, set 2, dose response (AID 488867). It counts as functional. The note with it: Rattus norvegicus.

T2 sequence (Q8VNN2 whole entry): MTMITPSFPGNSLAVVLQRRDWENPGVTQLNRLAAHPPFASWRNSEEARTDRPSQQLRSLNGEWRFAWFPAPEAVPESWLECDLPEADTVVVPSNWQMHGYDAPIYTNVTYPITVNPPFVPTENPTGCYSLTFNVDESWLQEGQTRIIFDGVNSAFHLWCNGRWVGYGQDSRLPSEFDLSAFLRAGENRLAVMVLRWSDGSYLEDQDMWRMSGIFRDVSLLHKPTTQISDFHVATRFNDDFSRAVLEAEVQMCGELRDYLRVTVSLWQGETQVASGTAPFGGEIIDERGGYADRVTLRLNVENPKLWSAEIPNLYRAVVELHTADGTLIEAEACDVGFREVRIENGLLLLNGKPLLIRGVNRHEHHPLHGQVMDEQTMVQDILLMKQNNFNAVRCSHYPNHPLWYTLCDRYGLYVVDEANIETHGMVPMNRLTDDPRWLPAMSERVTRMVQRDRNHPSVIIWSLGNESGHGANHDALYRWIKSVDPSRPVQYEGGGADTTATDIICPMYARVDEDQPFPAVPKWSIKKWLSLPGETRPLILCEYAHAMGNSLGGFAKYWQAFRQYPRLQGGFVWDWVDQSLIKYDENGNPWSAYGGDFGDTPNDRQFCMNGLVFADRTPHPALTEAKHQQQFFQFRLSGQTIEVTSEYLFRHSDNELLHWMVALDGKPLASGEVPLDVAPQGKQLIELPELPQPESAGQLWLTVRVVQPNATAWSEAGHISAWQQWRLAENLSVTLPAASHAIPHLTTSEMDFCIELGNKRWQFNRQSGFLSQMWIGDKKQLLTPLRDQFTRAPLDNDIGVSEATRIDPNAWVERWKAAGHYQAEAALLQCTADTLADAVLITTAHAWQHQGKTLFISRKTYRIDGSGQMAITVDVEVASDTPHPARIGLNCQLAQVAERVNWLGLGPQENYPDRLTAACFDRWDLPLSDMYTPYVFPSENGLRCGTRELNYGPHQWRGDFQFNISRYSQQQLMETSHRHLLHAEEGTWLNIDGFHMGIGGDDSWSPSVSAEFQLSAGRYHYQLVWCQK
T4 sequence (P41143 whole entry): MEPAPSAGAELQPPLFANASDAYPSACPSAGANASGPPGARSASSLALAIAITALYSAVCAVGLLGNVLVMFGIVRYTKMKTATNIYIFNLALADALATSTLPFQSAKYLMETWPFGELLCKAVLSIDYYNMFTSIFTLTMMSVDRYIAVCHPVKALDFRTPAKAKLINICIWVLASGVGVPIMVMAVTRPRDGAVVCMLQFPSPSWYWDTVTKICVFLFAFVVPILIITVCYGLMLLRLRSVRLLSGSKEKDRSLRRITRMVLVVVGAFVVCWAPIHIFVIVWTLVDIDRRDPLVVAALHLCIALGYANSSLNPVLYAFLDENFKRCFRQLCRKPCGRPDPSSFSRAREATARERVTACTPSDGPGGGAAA
Kappa-type opioid receptor, sequence (P41145 whole entry): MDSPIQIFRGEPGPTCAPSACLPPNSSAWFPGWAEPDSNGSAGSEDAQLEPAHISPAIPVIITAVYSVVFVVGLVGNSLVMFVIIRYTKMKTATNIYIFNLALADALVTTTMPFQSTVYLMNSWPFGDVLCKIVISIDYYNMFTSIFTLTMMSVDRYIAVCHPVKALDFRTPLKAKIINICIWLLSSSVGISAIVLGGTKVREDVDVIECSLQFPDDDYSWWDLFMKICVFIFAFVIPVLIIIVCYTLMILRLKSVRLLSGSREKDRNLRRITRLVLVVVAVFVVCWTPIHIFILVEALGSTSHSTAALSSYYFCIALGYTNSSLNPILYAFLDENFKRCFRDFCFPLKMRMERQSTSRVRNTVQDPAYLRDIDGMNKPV
Latent membrane protein 1, sequence (P03230 whole entry): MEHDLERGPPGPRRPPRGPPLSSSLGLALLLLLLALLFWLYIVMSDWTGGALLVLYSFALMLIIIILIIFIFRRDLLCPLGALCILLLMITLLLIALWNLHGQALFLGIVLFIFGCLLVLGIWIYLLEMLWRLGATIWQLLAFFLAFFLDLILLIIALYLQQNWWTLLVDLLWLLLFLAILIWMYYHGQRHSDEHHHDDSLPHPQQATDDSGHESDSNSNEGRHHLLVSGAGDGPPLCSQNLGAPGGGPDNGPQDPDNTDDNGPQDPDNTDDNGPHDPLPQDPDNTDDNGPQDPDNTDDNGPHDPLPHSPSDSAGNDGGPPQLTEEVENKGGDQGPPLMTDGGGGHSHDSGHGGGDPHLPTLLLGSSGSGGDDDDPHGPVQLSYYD
Glycogen synthase kinase-3 beta, sequence (P49841 whole entry): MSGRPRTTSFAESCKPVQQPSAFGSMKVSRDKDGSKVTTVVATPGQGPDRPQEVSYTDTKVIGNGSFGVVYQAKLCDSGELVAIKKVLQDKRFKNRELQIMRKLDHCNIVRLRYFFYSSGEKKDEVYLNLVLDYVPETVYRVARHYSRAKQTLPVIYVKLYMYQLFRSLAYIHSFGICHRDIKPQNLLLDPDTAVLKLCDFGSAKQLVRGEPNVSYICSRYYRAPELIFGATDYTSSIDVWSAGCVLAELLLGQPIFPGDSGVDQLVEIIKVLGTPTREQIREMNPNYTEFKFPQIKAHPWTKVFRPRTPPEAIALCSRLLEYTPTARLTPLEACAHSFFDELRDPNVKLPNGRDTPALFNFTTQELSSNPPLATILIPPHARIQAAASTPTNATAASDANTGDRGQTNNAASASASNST
Glycogen synthase kinase-3 alpha, sequence (P49840 whole entry): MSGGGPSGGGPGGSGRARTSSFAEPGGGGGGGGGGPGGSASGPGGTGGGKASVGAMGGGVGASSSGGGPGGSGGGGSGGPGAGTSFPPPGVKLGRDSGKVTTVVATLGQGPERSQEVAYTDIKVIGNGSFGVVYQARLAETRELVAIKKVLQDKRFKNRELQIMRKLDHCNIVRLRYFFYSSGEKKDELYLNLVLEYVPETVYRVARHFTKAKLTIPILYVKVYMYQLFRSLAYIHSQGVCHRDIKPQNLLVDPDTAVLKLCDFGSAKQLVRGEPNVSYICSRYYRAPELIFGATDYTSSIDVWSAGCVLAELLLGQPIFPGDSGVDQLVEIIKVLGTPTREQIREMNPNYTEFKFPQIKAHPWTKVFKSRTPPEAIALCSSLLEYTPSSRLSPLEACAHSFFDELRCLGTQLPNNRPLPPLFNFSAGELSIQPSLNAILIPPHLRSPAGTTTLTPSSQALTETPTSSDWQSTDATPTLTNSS
Apoptotic protease-activating factor 1, sequence (O14727 whole entry): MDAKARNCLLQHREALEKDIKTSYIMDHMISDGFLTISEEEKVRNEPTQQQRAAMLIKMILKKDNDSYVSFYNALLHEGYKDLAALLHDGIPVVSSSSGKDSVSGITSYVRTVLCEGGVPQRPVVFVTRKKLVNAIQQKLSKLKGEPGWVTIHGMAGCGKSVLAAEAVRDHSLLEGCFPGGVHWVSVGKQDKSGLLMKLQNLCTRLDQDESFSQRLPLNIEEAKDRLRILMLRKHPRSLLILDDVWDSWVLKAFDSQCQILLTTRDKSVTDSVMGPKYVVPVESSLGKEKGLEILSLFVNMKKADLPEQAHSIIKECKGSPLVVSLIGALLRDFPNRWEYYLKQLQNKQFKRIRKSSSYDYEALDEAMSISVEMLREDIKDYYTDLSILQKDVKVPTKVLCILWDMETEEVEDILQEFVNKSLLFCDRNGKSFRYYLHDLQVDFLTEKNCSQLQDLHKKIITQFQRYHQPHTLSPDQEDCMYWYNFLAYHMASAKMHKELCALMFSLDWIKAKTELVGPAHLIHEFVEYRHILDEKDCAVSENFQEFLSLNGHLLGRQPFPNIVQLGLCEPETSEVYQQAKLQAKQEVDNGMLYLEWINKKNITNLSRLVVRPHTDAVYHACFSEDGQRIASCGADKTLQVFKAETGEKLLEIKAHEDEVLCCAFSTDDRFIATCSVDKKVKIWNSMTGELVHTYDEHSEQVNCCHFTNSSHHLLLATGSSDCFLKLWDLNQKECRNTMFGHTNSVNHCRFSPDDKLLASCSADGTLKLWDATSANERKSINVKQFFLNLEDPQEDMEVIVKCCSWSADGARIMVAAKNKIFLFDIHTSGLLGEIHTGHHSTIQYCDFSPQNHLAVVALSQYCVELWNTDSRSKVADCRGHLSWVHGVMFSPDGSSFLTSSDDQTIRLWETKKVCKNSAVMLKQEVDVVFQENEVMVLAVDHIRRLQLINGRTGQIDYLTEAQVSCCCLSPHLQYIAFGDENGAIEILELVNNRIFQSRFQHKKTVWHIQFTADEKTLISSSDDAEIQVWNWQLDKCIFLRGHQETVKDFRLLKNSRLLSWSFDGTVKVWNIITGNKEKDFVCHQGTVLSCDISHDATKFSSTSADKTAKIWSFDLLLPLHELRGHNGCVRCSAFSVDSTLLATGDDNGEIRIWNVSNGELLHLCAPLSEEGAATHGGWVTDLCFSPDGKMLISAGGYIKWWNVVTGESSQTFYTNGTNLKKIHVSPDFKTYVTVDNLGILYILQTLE
Mu-type opioid receptor, sequence (P35372 whole entry): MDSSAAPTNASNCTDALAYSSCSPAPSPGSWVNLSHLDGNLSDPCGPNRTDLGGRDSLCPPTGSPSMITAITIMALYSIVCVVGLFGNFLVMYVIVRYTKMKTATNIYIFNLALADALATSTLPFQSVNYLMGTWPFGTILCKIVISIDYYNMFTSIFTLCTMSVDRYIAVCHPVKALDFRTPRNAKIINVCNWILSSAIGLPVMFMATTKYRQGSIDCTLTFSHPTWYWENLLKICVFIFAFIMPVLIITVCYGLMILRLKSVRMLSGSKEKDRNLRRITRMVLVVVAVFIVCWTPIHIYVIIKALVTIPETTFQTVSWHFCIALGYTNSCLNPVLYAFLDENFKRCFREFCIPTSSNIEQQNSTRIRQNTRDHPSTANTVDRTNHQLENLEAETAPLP
Beta Lactamase, sequence (Q932Y6 whole entry): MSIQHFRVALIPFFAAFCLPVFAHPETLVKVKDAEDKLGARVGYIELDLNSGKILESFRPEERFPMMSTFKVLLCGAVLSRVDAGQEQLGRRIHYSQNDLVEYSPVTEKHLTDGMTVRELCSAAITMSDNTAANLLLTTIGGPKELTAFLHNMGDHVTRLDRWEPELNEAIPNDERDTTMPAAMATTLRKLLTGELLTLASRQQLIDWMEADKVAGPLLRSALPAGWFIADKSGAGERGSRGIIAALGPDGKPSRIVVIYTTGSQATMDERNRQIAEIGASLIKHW

On to `O=C(c1ccccc1)c1cc(Cl)ccc1N1C(=O)C=CC1=O`, for which the AC50 is 0.552 µM (active) in [1] and 11.9 µM (active) in [2]. In addition, the IC50 in the test with CHO is 2.26 µM (active); at Beta Lactamase, 14.7 µM (inactive).
Turning to `OCCN(CCO)CC(O)COCCC12CC3CC(CC(C3)C1)C2` (centres undefined), the AC50 in test [3] is 77.6 µM (active).
For the compound `Cc1ccc(S(=O)(=O)Nc2cccc3cccnc23)cc1`, the EC50 was > 40 µM (inactive) at Beta-galactosidase [4]; 11.5 µM (active) in test [6]; > 32 µM (inactive) in [7]; 2.84 µM (active) in test [8]; 2.5 µM (active) in test [9]; 13.7 µM (active) in test [12]. Moreover, the results for the EC50 (in test [17]; at Mu-type opioid receptor; at Beta-galactosidase [20]) were 15.2 µM (active), > 32 µM (inactive) and > 31.5 µM (inactive), respectively. For the same compound, in the test on Vero, the CC50 is 6.89 µM (active). In addition, the IC50 in test [5] was 0.63 µM (active); in test [10], > 32 µM (inactive); in [14], 1.42 µM (active); in test [15] it was 0.55 µM (active); in the test on Jurkat, 1.06 µM (active); with HEK293 [16], 18.1 µM (active). Moreover, the IC50 was 2.57 µM (active) in [18], 1.84 µM (active) in [19], 56.8 µM (inactive) with HEK293 [21] and 3.67 µM (active) in test [22]. The AC50 in the test with A-375 [11] is > 35 µM (active); with A-375 [13], > 35 µM (active); in test [2] it was 5.55 µM (active).
As to `Cc1ccc(-n2nc3ccc(N)cc3n2)cc1Cl`, the IC50 in test [23] is > 100 µM (inactive).
`Nc1nonc1-n1nnc(C(=O)N/N=C/c2ccccc2Cl)c1CN1CCOCC1`: the results for the half-maximal activity concentration (AC50) in [24] and in test [25] were 2 µM (active) and 5.64 µM (active), respectively.
As to `COc1ccc(S(=O)(=O)N(C)C[C@@H]2Oc3c(NC(=O)Nc4cccc5ccccc45)cccc3C(=O)N([C@H](C)CO)C[C@H]2C)cc1`, the AC50 in the test with INS1 [26] is 18.4 µM (active); with INS1 [27], 74.5 µM (active); in the test with INS1 [28] it was > 235 µM (inactive).
